From US20240109900A1, “AZABICYCLIC SHP2 INHIBITORS” (IRBM S.P.A., priority 2021, published 2024)
Read-outs that look alike come from different tables or passages of the source.

How the values were obtained:
[1] = target: SHP-2 enzyme (Met1-Leu525) (Homo sapiens (Human), UniProt Q06124); assay: SHP2 inhibition enzymatic assay; type: biochemical; conditions: 0.5 nM SHP-2 activated by 500 nM IRS1 peptide, 75 μM DiFMUP substrate; read-out: SHP2wt-IC50
In short: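 SHP-2 (Met1-Leu525), 0.5 nM, activated with 500 nM IRS1 bis-phosphopeptide, preincubated 30 min with compounds in HEPES pH 7.2 buffer with 5 mM DTT. 75 μM DiFMUP added for 30 min at room temperature, stopped with bpV; fluorescence read. IC50 from four-parameter logistic fit of % inhibition.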

[2] = test system: ERK phosphorylation in KYSE-520 cells; assay: Phospho-ERK cellular assay; type: cell-based; conditions: KYSE-520 cells, 2 h at 37° C., phospho-ERK1/2 (Thr202/Tyr204) TR-FRET, read-out: PERK IC50
In short: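 TR-FRET read-out of ERK1/2 Thr202/Tyr204 phosphorylation was taken after overnight antibody incubation at room temperature. Before that, KYSE-520 cells were treated 2 h at 37 °C with compound dilutions and lysed 30 min. Percent inhibition relative to vehicle and cell-free wells was fitted four-parametrically to give IC50.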

Sequence of SHP-2 enzyme (Met1-Leu525) (Q06124 1-525): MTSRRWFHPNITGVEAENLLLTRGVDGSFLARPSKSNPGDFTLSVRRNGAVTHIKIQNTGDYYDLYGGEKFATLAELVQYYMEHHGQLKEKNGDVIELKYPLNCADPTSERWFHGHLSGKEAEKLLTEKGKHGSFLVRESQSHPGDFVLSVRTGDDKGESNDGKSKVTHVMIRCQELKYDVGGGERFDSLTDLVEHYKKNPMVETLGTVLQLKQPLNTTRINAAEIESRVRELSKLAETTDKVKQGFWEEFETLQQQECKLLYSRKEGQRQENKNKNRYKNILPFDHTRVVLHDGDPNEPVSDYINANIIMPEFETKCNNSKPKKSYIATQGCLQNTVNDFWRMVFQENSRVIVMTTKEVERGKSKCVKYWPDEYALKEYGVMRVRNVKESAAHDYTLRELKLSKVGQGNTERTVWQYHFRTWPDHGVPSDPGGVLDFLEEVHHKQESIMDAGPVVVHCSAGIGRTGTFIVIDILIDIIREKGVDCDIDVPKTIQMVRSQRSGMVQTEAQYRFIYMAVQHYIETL

| Structure (SMILES) | IC50 [1] [µM] | IC50 ([2]; Homo sapiens, KYSE-520, 2 h) [µM] | IC50 [2] [µM] |
| --- | --- | --- | --- |
| Cn1cc2c(Cl)c(-c3n[nH]c4nc(N5CCC6C(C5)C6(CN)c5cc(CO)on5)cnc34)ccc2n1 (stereo not shown) [Example 61, (3-(7-(aminomethyl)-3-(3-(4-chloro-2-methyl-2H-indazol-5-yl)-1H-pyrazolo[3,4-b]pyrazin-6-yl)-3-azabicyclo[4.1.0]heptan-7-yl)isoxazol-5-yl)methanol] | < 0.5 | < 1 |  |
| Cc1c(-c2n[nH]c3nc(N4CC[C@@H]5[C@H](C4)[C@@]5(CN)c4c(F)cccc4F)cnc23)ccc2nn(C)cc12 [Example 106, ((1S,6R,7R)-7-(2,6-difluorophenyl)-3-(3-(2,4-dimethyl-2H-indazol-5-yl)-1H-pyrazolo[3,4-b]pyrazin-6-yl)-3-azabicyclo[4.1.0]heptan-7-yl)methanamine] | < 0.5 | < 1 |  |
| NC[C@]1(c2ccccc2F)[C@@H]2CCN(c3cnc4c(-c5ccc(-c6ccn[nH]6)cc5Cl)n[nH]c4n3)C[C@@H]21 [Example 296, ((1S,6R,7R)-3-(3-(2-chloro-4-(1H-pyrazol-5-yl)phenyl)-1H-pyrazolo[3,4-b]pyrazin-6-yl)-7-(2-fluorophenyl)-3-azabicyclo[4.1.0]heptan-7-yl)methanamine] | < 0.5 | < 1 |  |
| NCC1(c2ccc(F)cc2)C2CCN(c3cnc4c(-c5cccc(Cl)c5Cl)n[nH]c4n3)CC21 (stereo not shown) [Example 10, (3-(3-(2,3-dichlorophenyl)-1H-pyrazolo[3,4-b]pyrazin-6-yl)-7-(4-fluorophenyl)-3-azabicyclo[4.1.0]heptan-7-yl)methanamine] | < 0.5 | < 1 |  |
| NC[C@]1(c2ccccc2F)[C@@H]2CCN(c3cnc4c(-c5ccc(-c6ncco6)cc5Cl)n[nH]c4n3)C[C@@H]21 [Example 264, ((1S,6R,7R)-3-(3-(2-chloro-4-(oxazol-2-yl)phenyl)-1H-pyrazolo[3,4-b]pyrazin-6-yl)-7-(2-fluorophenyl)-3-azabicyclo[4.1.0]heptan-7-yl)methanamine] | < 0.5 | < 1 |  |
| COc1cnc2ccc(-c3n[nH]c4nc(N5CC[C@@H]6[C@H](C5)[C@@]6(CN)c5ccccc5F)cnc34)cc2n1 [Example 188, ((1S,6R,7R)-7-(2-fluorophenyl)-3-(3-(3-methoxyquinoxalin-6-yl)-1H-pyrazolo[3,4-b]pyrazin-6-yl)-3-azabicyclo[4.1.0]heptan-7-yl)methanamine] | < 0.5 | < 1 |  |
| Cc1cc(C2(CN)C3CCN(c4cnc5c(-c6ccc(Cl)c7cnccc67)n[nH]c5n4)CC32)no1 (stereo not shown) [Example 34, (3-(3-(8-chloroisoquinolin-5-yl)-1H-pyrazolo[3,4-b]pyrazin-6-yl)-7-(5-methylisoxazol-3-yl)-3-azabicyclo[4.1.0]heptan-7-yl)methanamine] | < 0.5 | < 1 |  |
| NCC1(c2ccc(F)cc2)C2CCN(c3cnc4c(-c5ccc6nccnc6c5)n[nH]c4n3)CC21 (stereo not shown) [Example 11, (7-(4-fluorophenyl)-3-(3-(quinoxalin-6-yl)-1H-pyrazolo[3,4-b]pyrazin-6-yl)-3-azabicyclo[4.1.0]heptan-7-yl)methanamine] | < 0.5 | > 5 |  |
| NC[C@]1(c2ccccc2F)[C@@H]2CCN(c3cnc4c(-c5cc(Cl)c(C(N)=O)cc5F)n[nH]c4n3)C[C@@H]21 [Example 253, 4-(6-((1S,6R,7R)-7-(aminomethyl)-7-(2-fluorophenyl)-3-azabicyclo[4.1.0]heptan-3-yl)-1H-pyrazolo[3,4-b]pyrazin-3-yl)-2-chloro-5-fluorobenzamide] | < 0.5 | < 1 |  |
| Cc1csc([C@@]2(CN)[C@@H]3CN(c4cnc(Sc5ccnc(N)c5Cl)c(N)n4)C[C@@H]32)n1 [Example 434, 3-((2-amino-3-chloropyridin-4-yl)thio)-6-((1R,5S,6r)-6-(aminomethyl)-6-(4-methylthiazol-2-yl)-3-azabicyclo[3.1.0]hexan-3-yl)pyrazin-2-amine] | < 0.5 |  | < 1 |
| NCC1(c2ncccn2)C2CCN(c3cnc4c(-c5cccc(Cl)c5Cl)n[nH]c4n3)CC21 (stereo not shown) [Example 83, (3-(3-(2,3-dichlorophenyl)-1H-pyrazolo[3,4-b]pyrazin-6-yl)-7-(pyrimidin-2-yl)-3-azabicyclo [4.1.0]heptan-7-yl)methanamine] | < 0.5 | < 1 |  |
| Cc1cc(-c2n[nH]c3nc(N4CC[C@@H]5[C@H](C4)[C@@]5(CN)c4ccccc4F)cnc23)cc2cccnc12 [Example 173, ((1S,6R,7R)-7-(2-fluorophenyl)-3-(3-(8-methylquinolin-6-yl)-1H-pyrazolo[3,4-b]pyrazin-6-yl)-3-azabicyclo[4.1.0]heptan-7-yl)methanamine] | < 0.5 | < 1 |  |
| NCC1(c2ccccc2F)C2CCN(c3cnc4c(-c5cccc6ccsc56)n[nH]c4n3)CC21 (stereo not shown) [Example 4, (3-(3-(benzo[b]thiophen-7-yl)-1H-pyrazolo[3,4-b]pyrazin-6-yl)-7-(2-fluorophenyl)-3-azabicyclo[4.1.0]heptan-7-yl)methanamine] | < 0.5 | 1 to 5 |  |

Second part, the compound after the results:

| IC50 [1] [µM] | IC50 ([2]; Homo sapiens, KYSE-520, 2 h) [µM] | IC50 [2] [µM] | Structure (SMILES) |
| --- | --- | --- | --- |
| < 0.5 | < 1 |  | Cn1cnc2ccc(-c3n[nH]c4nc(N5CC[C@@H]6[C@H](C5)[C@@]6(CN)c5ccccc5F)cnc34)c(Cl)c21 [Example 338, ((1S,6R,7R)-3-(3-(7-chloro-1-methyl-1H-benzo[d]imidazol-6-yl)-1H-pyrazolo[3,4-b]pyrazin-6-yl)-7-(2-fluorophenyl)-3-azabicyclo[4.1.0]heptan-7-yl)methanamine] |
| < 0.5 | < 1 |  | Cc1nccc(-c2ccc3nc(N4CC[C@@H]5[C@H](C4)[C@@]5(CN)c4ccccc4F)cnc3n2)c1F [Example 529] |
| < 0.5 |  | < 1 | COc1nccc(-c2n[nH]c3nc(N4C[C@@H]5[C@H](C4)C5(CN)c4nc(C)cs4)cnc23)c1Cl (stereo partly shown) [Example 476] |
| < 0.5 | < 1 |  | Cc1csc([C@@]2(CN)[C@@H]3CCN(c4cnc5c(-c6cc7ccnn7cc6Cl)n[nH]c5n4)C[C@@H]32)n1 [Example 481, ((1S,6R,7S)-3-(3-(6-chloropyrazolo[1,5-a]pyridin-5-yl)-1H-pyrazolo[3,4-b]pyrazin-6-yl)-7-(4-methylthiazol-2-yl)-3-azabicyclo[4.1.0]heptan-7-yl)methanamine] |
| < 0.5 |  | < 1 | Cc1csc(C2(CN)[C@@H]3CN(c4cnc5c(-c6ccc7c(cnn7C)c6Cl)n[nH]c5n4)C[C@@H]32)n1 (stereo partly shown) [Example 480] |
| < 0.5 | < 1 |  | NC[C@]1(c2ccccc2F)[C@@H]2CCN(c3cnc4c(-c5ccc(F)c6ncccc56)c[nH]c4n3)C[C@@H]21 [Example 507, ((1S,6R,7R)-7-(2-fluorophenyl)-3-(7-(8-fluoroquinolin-5-yl)-5H-pyrrolo[2,3-b]pyrazin-3-yl)-3-azabicyclo[4.1.0]heptan-7-yl)methanamine] |
| < 0.5 | < 1 |  | NC[C@]1(c2ccccc2F)[C@@H]2CCN(c3cnc4nc(N5CCCc6ncccc65)ccc4n3)C[C@@H]21 [Example 406, ((1S,6R,7R)-3-(6-(3,4-dihydro-1,5-naphthyridin-1(2H)-yl)pyrido[2,3-b]pyrazin-2-yl)-7-(2-fluorophenyl)-3-azabicyclo[4.1.0]heptan-7-yl)methanamine] |
